Assay results reported in article PMC4387200 (Toxicology and applied pharmacology, 2015).
Like-named read-outs stand apart in the source and are kept apart here.

Columns and labels:
Human PXR [1] = molecular target: T1, Human PXR (Homo sapiens, UniProt O75469); conditions: maximum response as percentage of the maximum response to rifampicin
T1 sequence (O75469 107-434): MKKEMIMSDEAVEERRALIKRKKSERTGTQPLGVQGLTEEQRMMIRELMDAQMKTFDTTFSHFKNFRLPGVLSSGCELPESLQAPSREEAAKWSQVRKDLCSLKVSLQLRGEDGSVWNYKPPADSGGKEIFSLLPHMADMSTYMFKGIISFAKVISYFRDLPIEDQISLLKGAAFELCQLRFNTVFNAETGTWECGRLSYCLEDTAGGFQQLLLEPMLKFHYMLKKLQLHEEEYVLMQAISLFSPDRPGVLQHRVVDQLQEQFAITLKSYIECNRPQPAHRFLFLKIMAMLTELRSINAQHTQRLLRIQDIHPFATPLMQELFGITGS

polar bear PXR [2] = experiment: in vitro
Polar bear PXR [3] = conditions: for Polar bear PXR Relative activation (%): maximum response as percentage of the maximum response to rifampicin; for Relative max induction (polar bear vs human): ratio of maximum induction via pbPXR to hPXR
Human PXR [4] = molecular target: T1, Human PXR; experiment: in vitro
Human PXR [5] = molecular target: T1, Human PXR
Polar bear PXR [6] = system: Polar bear PXR

Row | Compound | Human PXR Relative activation (%) (Human PXR [1]) | fold induction (polar bear PXR [2]) | Polar bear PXR Relative activation (%) (Polar bear PXR [3]) | Relative max induction (polar bear vs human) (Polar bear PXR [3]) | fold induction (Human PXR [4]) | other results
1 | Clc1ccc(Cl)c(Cl)c1 [1,2,4-trichlorobenzene (1,2,4-TCB), 1,2,4-trichlorobenzene] | 10 | 0.9 ± 0.3 | 9 | 0.9 | 1 ± 0.1 | –
2 | Brc1ccc(Oc2c(Br)cc(Br)cc2Br)c(Br)c1 [BDE 100] | 39 | 1.3 ± 0.2 | 14 | 0.4 | 3.8 ± 0.3 | Human PXR RECh20 (Human PXR [5]; human): 6.6 µM
3 | C=CC1(C)OC(=O)N(c2cc(Cl)cc(Cl)c2)C1=O (centres unmarked) [Vinclozolin] | 38 | 1.1 ± 0.2 | 11 | 0.3 | 3.7 ± 0.2 | Human PXR RECh20 (Human PXR [5]; human): 44 µM
4 | Cl[C@H]1[C@H](Cl)[C@H](Cl)[C@@H](Cl)[C@H](Cl)[C@H]1Cl [α-hexachlorocyclohexane (α-HCH), α-hexachlorocyclohexane] | 57 | 1.3 ± 0.8 | 13 | 0.2 | 5.6 ± 1.5 | Human PXR RECh20 (Human PXR [5]; human): 3.8 µM
5 | O=c1cc(-c2ccccc2)oc2ccc3ccccc3c12 [β-naphtoflavone (BNF), β-naphtoflavone, reference compound] | 28 | – | 21 | 0.8 | – | Polar bear PXR RECh20 (Polar bear PXR [6]): 0.69 µM; Human PXR RECh20 (Human PXR [5]): 0.069 µM
6 | Brc1cc(Br)c(Oc2cc(Br)c(Br)cc2Br)cc1Br [BDE 153] | 45 | 1.7 ± 0.1 | 17 | 0.4 | 4.4 ± 0.2 | Human PXR RECh20 (Human PXR [5]; human): 3.9 µM
7 | Clc1cc(Cl)c(-c2c(Cl)cc(Cl)c(Cl)c2Cl)c(Cl)c1 [PCB 184] | 33 | – | 19 | 0.6 | – | –
8 | Clc1ccc(-c2cc(Cl)c(Cl)cc2Cl)cc1Cl [PCB 118] | 25 | – | 14 | 0.6 | – | Human PXR RECh20 (Human PXR [5]): 34 µM
9 | CC(=O)N1CCN(c2ccc(OCC3COC(Cn4ccnc4)(c4ccc(Cl)cc4Cl)O3)cc2)CC1 (centres unmarked) [Ketoconazole, reference compound] | – | 0.9 ± 0.1 | – | – | 2.7 ± 0.5 | Polar bear PXR Relative activation (%) (Polar bear PXR [6]; polar bear): 9%; Relative max induction (polar bear vs human) (Polar bear PXR [6]; polar bear and human): 0.3; Human PXR RECh20 (Human PXR [5]; human): 13 µM; Human PXR Relative activation (%) (Human PXR [5]; human): 28%
10 | Clc1ccc(Cl)c(-c2cc(Cl)c(Cl)cc2Cl)c1 [PCB 101] | 34 | – | 19 | 0.6 | – | –
11 | Clc1cc(Cl)c(-c2cccc(Cl)c2Cl)cc1Cl [PCB 97] | 25 | – | 28 | 1.1 | – | –
12 | CC(C)(c1cc(Br)c(O)c(Br)c1)c1cc(Br)c(O)c(Br)c1 [Tetrabromobisphenol A (TBBPA), Tetrabromobisphenol A] | – | – | – | – | – | Polar bear PXR RECh20 (Polar bear PXR [6]): 35 µM; Polar bear PXR Relative activation (%) (Polar bear PXR [6]): 39%; Relative max induction (polar bear vs human) (Polar bear PXR [6]): 1.2; Human PXR RECh20 (Human PXR [5]): 29 µM; Human PXR Relative activation (%) (Human PXR [5]): 32%
13 | Clc1ccc(-c2ccc(Cl)cc2Cl)cc1 [PCB 28] | 19 | – | 12 | 0.6 | – | –
14 | Oc1c(Cl)c(Cl)c(Cl)c(Cl)c1Cl [Pentachlorophenol] | 11 | 0.9 ± 0.3 | – | – | 1 ± 0.2 | Polar bear PXR Relative activation (%) (Polar bear PXR [6]; polar bear): 9%; Relative max induction (polar bear vs human) (Polar bear PXR [6]; polar bear and human): 0.9
15 | Clc1ccc(-c2cc(Cl)c(Cl)c(Cl)c2Cl)c(Cl)c1Cl [PCB 170] | 24 | – | 15 | 0.6 | – | –
16 | Hexabromocyclododecane [HBCD technical mixture] | – | – | – | – | – | Polar bear PXR RECh20 (Polar bear PXR [6]): 1.7 µM
17 | Clc1ccc(-c2c(Cl)c(Cl)c(Cl)c(Cl)c2Cl)cc1Cl [PCB 190] | 46 | – | 18 | 0.4 | – | –
18 | Clc1ccccc1C(c1ccccc1)(c1ccccc1)n1ccnc1 [Clotrimazole, reference compound] | – | – | – | – | – | Polar bear PXR RECh20 (Polar bear PXR [6]; polar bear): 0.63 µM

Row | Compound | Human PXR Relative activation (%) (Human PXR [1]) | fold induction (polar bear PXR [2]) | Polar bear PXR Relative activation (%) (Polar bear PXR [3]) | Relative max induction (polar bear vs human) (Polar bear PXR [3]) | fold induction (Human PXR [4]) | other results
19 | COc1ccc2[nH]c([S+]([O-])Cc3ncc(C)c(OC)c3C)nc2c1 (centres unmarked) [Omeprazole, reference compound] | – | 1.3 ± 0.3 | – | – | 4.3 ± 0.3 | Polar bear PXR Relative activation (%) (Polar bear PXR [6]; polar bear): 13%; Relative max induction (polar bear vs human) (Polar bear PXR [6]; polar bear and human): 0.3; Human PXR RECh20 (Human PXR [5]; human): 9.1 µM; Human PXR Relative activation (%) (Human PXR [5]; human): 44%
20 | NC(=O)N1c2ccccc2C=Cc2ccccc21 [Carbamazepine, reference compound] | – | 1.4 ± 0.3 | – | – | 2.3 ± 0.3 | Polar bear PXR Relative activation (%) (Polar bear PXR [6]; polar bear): 14%; Relative max induction (polar bear vs human) (Polar bear PXR [6]; polar bear and human): 0.6; Human PXR RECh20 (Human PXR [5]; human): 13 µM; Human PXR Relative activation (%) (Human PXR [5]; human): 23%
21 | Brc1c(Br)c(Br)c(Oc2c(Br)c(Br)c(Br)c(Br)c2Br)c(Br)c1Br [BDE 209] | 26 | – | 19 | 0.7 | – | Human PXR RECh20 (Human PXR [5]): 16 µM
22 | C[Si]1(C)O[Si](C)(C)O[Si](C)(C)O[Si](C)(C)O[Si](C)(C)O1 [Decamethylcyclopentasiloxane (D5), Decamethylcyclopentasiloxane] | 22 | 1.6 ± 0.2 | 16 | 0.7 | 2.2 ± 0.2 | Human PXR RECh20 (Human PXR [5]; human): 35 µM
23 | Clc1ccc(-c2ccc(Cl)cc2Cl)c(Cl)c1 [PCB 47] | 27 | – | 14 | 0.5 | – | –
24 | Clc1ccc(C(c2ccc(Cl)cc2)C(Cl)(Cl)Cl)cc1 [4,4′-DDT, Dichlorodiphenyltrichloroethane] | 53 | – | 42 | 0.8 | – | Polar bear PXR RECh20 (Polar bear PXR [6]): 11 µM; Human PXR RECh20 (Human PXR [5]): 9.3 µM
25 | Brc1ccc(Oc2cc(Br)c(Br)cc2Br)c(Br)c1 [BDE 99] | 52 | – | 16 | 0.3 | – | Human PXR RECh20 (Human PXR [5]): 4.8 µM
26 | C[Si]1(C)O[Si](C)(C)O[Si](C)(C)O[Si](C)(C)O1 [Octamethylcyclotetrasiloxane (D4), Octamethylcyclotetrasiloxane] | 44 | 1.1 ± 0.4 | 11 | 0.3 | 4.3 ± 0.3 | –
27 | Clc1cc(Cl)c(-c2c(Cl)cc(Cl)c(Cl)c2Cl)cc1Cl [PCB 183] | 28 | – | 31 | 1.1 | – | –
28 | O=C(O)C(F)(F)C(F)(F)C(F)(F)C(F)(F)C(F)(F)C(F)(F)C(F)(F)C(F)(F)F [Perfluorononanoic acid (PFNA), Perfluorononanoic acid] | 11 | – | 10 | 0.9 | – | –
29 | Brc1ccc(Oc2ccc(Br)cc2Br)cc1 [BDE 28] | 31 | – | 9 | 0.3 | – | Human PXR RECh20 (Human PXR [5]): 11 µM
30 | Clc1ccc(Cl)c(-c2c(Cl)c(Cl)cc(Cl)c2Cl)c1 [PCB 151] | 72 | – | 15 | 0.2 | – | –
31 | Clc1cccc(Cl)c1Cl [1,2,3-trichlorobenzene (1,2,3-TCB), 1,2,3-trichlorobenzene] | 9 | 0.9 ± 0.3 | 9 | 0.9 | 0.9 ± 0.1 | –
32 | Clc1ccc(-c2ccc(Cl)c(Cl)c2Cl)cc1 [PCB 60] | 10 | – | 8 | 0.7 | – | –
33 | Clc1cc(Cl)c(-c2ccc(Cl)c(Cl)c2Cl)cc1Cl [PCB 138] | 12 | – | 11 | 0.9 | – | –
34 | CO[C@H]1/C=C/O[C@@]2(C)Oc3c(C)c(O)c4c(O)c(c(/C=N/N5CCN(C)CC5)c(O)c4c3C2=O)NC(=O)/C(C)=C\C=C\[C@H](C)[C@H](O)[C@@H](C)[C@@H](O)[C@@H](C)[C@H](OC(C)=O)[C@@H]1C [Rifampicin, reference compound] | – | – | – | – | – | Polar bear PXR RECh20 (Polar bear PXR [6]; polar bear): 1.1 µM; Human PXR RECh20 (Human PXR [5]; human): 0.46 µM
35 | Brc1ccc(Oc2ccc(Br)cc2Br)c(Br)c1 [BDE 47] | 59 | – | 16 | 0.3 | – | Human PXR RECh20 (Human PXR [5]): 5 µM
36 | Clc1ccc(Cl)c(-c2cc(Cl)ccc2Cl)c1 [PCB 52] | 11 | – | 10 | 0.9 | – | –
